Measurements taken from US11254690B2, “PTEFb inhibiting macrocyclic compounds” (BAYER AKTIENGESELLSCHAFT, priority 2017, dated 2022).
“And” between values parts separate entries of the source, which are not always exact repeats. Equal entries are not always repeated.

Legend:
[1] = biological target: T1, human PTEFb (CDK9/Cyclin T1) (Homo sapiens, UniProt P50750); test: Surface Plasmon Resonance PTEFb; assay type: binding; conditions: SPR, 37° C.; for residence time / Target residence time: 1/koff; for residence time / koff / Target residence time / Dissociation rate constant koff: * = arithmetic means; for residence time: read-out: Target residence time; for Kd: * = arithmetic means of more than one value, read-out: Equilibrium dissociation constant KD; for koff / Dissociation rate constant koff: < = below what is resolvable; for koff: read-out: Dissociation rate constant koff
T1 construct: purchased ProQinase, Freiburg, Germany
Text: 8. Surface Plasmon Resonance PTEFb
The term “surface plasmon resonance”, as used herein, refers to an optical phenomenon that allows for the analysis of the reversible associations of biological molecules in real time within a biosensor matrix, for example using the Biacore® system (GE Healthcare Biosciences, Uppsala, Sweden). Biacore® uses the optical properties of surface plasmon resonance (SPR) to detect alterations in the refractive index of a buffer, which changes as molecules in solution interact with the target immobilized on the surface. In brief, proteins are covalently bound to the dextran matrix at a known concentration and a ligand for the protein is injected through the dextran matrix. Near infrared light, directed onto the opposite side of the sensor chip surface is reflected and also induces an evanescent wave in the gold film, which in turn, causes an intensity dip in the reflected light at a particular angle known as the resonance angle. If the refractive index of the sensor chip surface is altered (e.g. by compound binding to the bound protein) a shift occurs in the resonance angle. This angle shift can be measured.
The term “KD”, as used herein, is intended to refer to the equilibrium dissociation constant of a particular compound/target protein complex.
The term “koff”, as used herein, is intended to refer to the off-rate, i.e. the dissociation rate constant of a particular compound/target protein complex.
The term “target residence time”, as used herein, is intended to refer to the inverse of the rate of dissociation rate constant (1/koff) of a particular compound/target protein complex.
The ability of the compounds according to the invention to bind human PTEFb may be determined using surface plasmon resonance (SPR). KD values and koff values may be measured using a Biacore® T200 instrument (GE Healthcare, Uppsala, Sweden).
For SPR measurements, recombinant human PTEFb (CDK9/Cyclin T1 recombinant human active protein kinase purchased from ProQinase, Freiburg, Germany) is immobilized using standard amine coupling (Johnsson B et al, Anal Biochem. 1991 Nov. 1; 198(2):268-77). Briefly, carboxymethylated dextran biosensor chips (CM7, GE Healthcare) are activated with N-ethyl-N′-(3-dimethylaminopropyl)-carbodiimide hydrochloride (EDC) and N-hydroxysuccinimide (NHS) according to the supplier's instructions. Human PTEFb is diluted in 1×HBS-EP+ (GE Healthcare) and injected on the activated chip surface. Subsequently, a 1:1 solution of 1 M ethanolamine-HCl (GE Healthcare) and 1×HBS-EP is injected to block unreacted groups, resulting in approximately 4000 response units (RU) of immobilized protein. A reference surface is generated by treatment with NHS-EDC and ethanolamine-HCl. Compounds are dissolved in 100% dimethylsulfoxide (DMSO, Sigma-Aldrich, Germany) to a concentration of 10 mM and subsequently diluted in running buffer (1×HBS-EP+pH 7.4 [generated from HBS-EP+ Buffer 10× (GE Healthcare): 0.1 M HEPES, 1.5 M NaCl, 30 mM EDTA and 0.5% v/v Surfactant P20], 1% v/v DMSO). For kinetic measurements, serial dilutions of compound (0.78 nM up to 25 nM) are injected over immobilized protein. Binding kinetics is measured at 37° C. with a flow rate of 100 μl/min in running buffer. Compound concentrations are injected for 70 s followed by a dissociation time of 1100 s. The resulting sensorgrams are double-referenced against the reference surface as well as against blank injections.
The double-referenced sensorgrams are fit to a simple reversible Langmuir 1:1 reaction mechanism as implemented in the Biacore® T200 evaluation software 2.0 (GE Healthcare). In cases were full compound dissociation has not occurred at the end of the dissociation phase, the Rmax parameter (response at saturation) is fit as local variable. In all other cases, Rmax is fit as global variable.

Caco-2 cells = test: Proliferation assay, Caco-2; assay type: cell-based; conditions: Homo sapiens, Caco-2, 96 h; 4 days, crystal violet; read-out: Inhibition of Caco-2 cell proliferation IC50
Experimental: Cultivated tumour cells (HeLa, human cervical tumour cells, ATCC CCL-2; NCI-H460, human non-small cell lung carcinoma cells, ATCC HTB-177; DU 145, hormone-independent human prostate carcinoma cells, ATCC HTB-81; HeLa-MaTu-ADR, multidrug-resistant human cervical carcinoma cells, EPO-GmbH Berlin; Caco-2, human colorectal carcinoma cells, ATCC HTB-37; B16F10, mouse melanoma cells, ATCC CRL-6475) were plated at a density of 5,000 cells/well (DU145, HeLa-MaTu-ADR), 3,000 cells/well (NCI-H460, HeLa), 1,500 cells/well (Caco-2), or 1,000 cells/well (B16F10) in a 96-well multititer plate in 200 μL of their respective growth medium supplemented 10% fetal calf serum. After 24 hours, the cells of one plate (zero-point plate) were stained with crystal violet (see below), while the medium of the other plates was supplemented with the test substances in various concentrations (0 μM, as well as in the range of 0.0001-10 μM; the final concentration of the solvent dimethyl sulfoxide was adjusted to 0.1%) using a Hewlett-Packard HP D300 Digital Dispenser. The cells were incubated for 4 days in the presence of test substances. Cell proliferation was determined by staining the cells with crystal violet: the cells were fixed by adding 20 μl/measuring point of an 11% glutaric aldehyde solution for 15 minutes at room temperature. After three washing cycles of the fixed cells with water, the plates were dried at room temperature. The cells were stained by adding 100 μl/measuring point of a 0.1% crystal violet solution (pH 3.0). After three washing cycles of the stained cells with water, the plates were dried at room temperature. The dye was dissolved by adding 100 μl/measuring point of a 10% acetic acid solution. The extinction was determined by photometry at a wavelength of 595 nm. The change of cell number, in percent, was calculated by normalization of the measured values to the extinction values of the zero-point plate (=0%) and the extinction of the untreated ([…]) cells (=100%). The IC50 values (inhibitory concentration at 50% of maximal effect) were determined by means of a 4 parameter fit. A2780 human ovarian carcinoma cells (ECACC #93112519) and non-adherent MOLM-13 human acute myeloid leukemia cells (DSMZ ACC 554) were seeded at a density of 3,000 cell/well (A2780) or 5,000 cells/well (MOLM-13) in a 96-well multititer plate in 150 μL of growth medium supplemented 10% fetal calf serum. After 24 hours, cell viability of one plate (zero-point plate) was determined with the Cell Titre-Glo Luminescent Cell Viability Assay (Promega), while the medium of the other plates was supplemented with the test substances in various concentrations (0 μM, as well as in the range of 0.0001-10 μM; the final concentration of the solvent dimethyl sulfoxide was adjusted to 0.1%) using a Hewlett-Packard HP D300 Digital Dispenser. Cell viability was assessed after 72-hour exposure with the Cell Titre-Glo Luminescent Cell Viability Assay (Promega). IC50 values (inhibitory concentration at 50% of maximal effect) were determined by means of a 4 parameter fit on measurement data which were normalized to vehicle (DMSO) treated cells (=100%) and measurement readings taken immediately before compound exposure (=0%).

T1 sequence (P50750 whole entry): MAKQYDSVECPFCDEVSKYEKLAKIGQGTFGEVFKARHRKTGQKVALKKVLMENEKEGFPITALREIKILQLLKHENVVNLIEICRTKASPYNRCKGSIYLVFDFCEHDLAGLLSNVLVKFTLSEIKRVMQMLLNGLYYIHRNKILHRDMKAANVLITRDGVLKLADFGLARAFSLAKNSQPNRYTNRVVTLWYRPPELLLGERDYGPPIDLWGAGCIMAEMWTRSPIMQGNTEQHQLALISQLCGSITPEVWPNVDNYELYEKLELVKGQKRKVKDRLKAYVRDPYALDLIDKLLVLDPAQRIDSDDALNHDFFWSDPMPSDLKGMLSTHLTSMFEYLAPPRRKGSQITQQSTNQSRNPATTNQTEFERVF
T1 sequence (O60563 whole entry partner): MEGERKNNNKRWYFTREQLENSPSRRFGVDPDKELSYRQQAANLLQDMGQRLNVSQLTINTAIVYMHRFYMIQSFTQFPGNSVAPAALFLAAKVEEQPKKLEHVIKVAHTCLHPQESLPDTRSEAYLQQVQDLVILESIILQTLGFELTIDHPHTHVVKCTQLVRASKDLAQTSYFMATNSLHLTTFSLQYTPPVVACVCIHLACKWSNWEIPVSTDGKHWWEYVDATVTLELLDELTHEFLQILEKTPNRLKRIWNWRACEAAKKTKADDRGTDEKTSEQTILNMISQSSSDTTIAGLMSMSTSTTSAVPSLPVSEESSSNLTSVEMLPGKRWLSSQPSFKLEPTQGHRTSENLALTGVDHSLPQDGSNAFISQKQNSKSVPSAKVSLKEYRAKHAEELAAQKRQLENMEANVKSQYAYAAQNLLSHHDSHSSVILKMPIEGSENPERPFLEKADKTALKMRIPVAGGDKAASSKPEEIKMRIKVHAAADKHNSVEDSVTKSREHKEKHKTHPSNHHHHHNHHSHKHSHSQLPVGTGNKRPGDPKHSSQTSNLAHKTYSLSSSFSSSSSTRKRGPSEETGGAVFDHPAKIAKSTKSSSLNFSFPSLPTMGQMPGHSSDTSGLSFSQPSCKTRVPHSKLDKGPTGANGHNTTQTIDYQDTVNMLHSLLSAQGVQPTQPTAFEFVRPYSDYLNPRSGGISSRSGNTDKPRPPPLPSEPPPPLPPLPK

Compound	Kd [1]	IC50 (Caco-2 cells) [nM]	also measured
CC1CCCCOc2cc(ccc2F)-c2cc(ncc2F)Nc2cc(CS(C)(=N)=O)cc(n2)O1 (single isomer, unassigned) [Example 22, 3,21-difluoro-14-methyl-10-[(S-methylsulfonimidoyl)methyl]-13,19-dioxa-5,7,25-triazatetracyclo[18.3.1.1^2,6.1^8,12]hexacosa-1(24),2(26),3,5,8(25),9,11,20,22-nonaene]	0.19 nM		Target residence time [1]: 43* min; Dissociation rate constant koff [1]: 3.9E−4* 1/s
CC1CCCCOc2cc(ccc2F)-c2cc(ncc2F)Nc2cc(CS(C)(=N)=O)cc(n2)O1 (single isomer, unassigned) [Example 21, 3,21-difluoro-14-methyl-10-[(S-methylsulfonimidoyl)methyl]-13,19-dioxa-5,7,25-triazatetracyclo[18.3.1.1^2,6.1^8,12]hexacosa-1(24),2(26),3,5,8(25),9,11,20,22-nonaene]	1 nM		Target residence time [1]: 10* min; Dissociation rate constant koff [1]: 1.6E−3* 1/s
CC1CCCOc2cc(ccc2F)-c2cc(ncc2F)Nc2cc(CS(C)(=N)=O)cc(n2)O1 (single isomer, unassigned) [Example 16, 3,20-difluoro-14-methyl-10-[(S-methylsulfonimidoyl)methyl]-13,18-dioxa-5,7,24-triazatetracyclo[17.3.1.1^2,6.1^8,12]pentacosa-1(23),2(25),3,5,8(24),9,11,19,21-nonaene]			Target residence time [1]: > 208 min and 131 min; Dissociation rate constant koff [1]: < 8e-05 s⁻¹ and 0.00013 s⁻¹
CC1CCCOc2cc(ccc2F)-c2cc(ncc2F)Nc2cc(CS(C)(=N)=O)cc(n2)O1 (single isomer, unassigned) [Example 17, 3,20-difluoro-14-methyl-10-[(S-methylsulfonimidoyl)methyl]-13,18-dioxa-5,7,24-triazatetracyclo[17.3.1.1^2,6.1^8,12]pentacosa-1(23),2(25),3,5,8(24),9,11,19,21-nonaene]	0.077 nM		residence time [1]: > 208 min; koff [1]: < 8e-05 s⁻¹
CC1CCCOc2cc(ccc2F)-c2cc(ncc2F)Nc2cc(CS(C)(=O)=O)cc(n2)O1 (racemic) [Example 28, 3,20-difluoro-14-methyl-10-[(methylsulfonyl)methyl]-13,18-dioxa-5,7,24-triazatetracyclo[17.3.1.1^2,6.1^8,12]pentacosa-1(23),2(25),3,5,8(24),9,11,19,21-nonaene]	0.092 nM and 0.091 nM and 0.12 nM		

More lines, main results first:

Kd [1]	IC50 (Caco-2 cells) [nM]	Compound	also measured
1.2 nM	177	CS(=N)(=O)Cc1cc2cc(c1)OCCCCOc1cc(ccc1F)-c1nc(ncc1F)N2 (racemic) [Example 4, (rac)-3,20-difluoro-10-[(S-methylsulfonimidoyl)methyl]-13,18-dioxa-5,7,25-triazatetracyclo[17.3.1.1^2,6.1^8,12]pentacosa-1(23),2(25),3,5,8(24),9,11,19,21-nonaene]	residence time [1]: 25 min; koff [1]: 0.00067 s⁻¹
	181	CS(=N)(=O)Cc1cc2cc(c1)OCCCCOc1c(F)ccc(c1F)-c1nc(ncc1F)N2 (racemic) [Example 8, (rac)-3,20,23-trifluoro-10-[(S-methylsulfonimidoyl)methyl]-13,18-dioxa-5,7,25-triazatetracyclo[17.3.1.1^2,6.1^8,12]pentacosa-1(23),2(25),3,5,8(24),9,11,19,21-nonaene]	
	159	CS(=N)(=O)Cc1cc2cc(c1)OCCCOc1cc(ccc1F)-c1nc(ncc1F)N2 (racemic) [Example 10, (rac)-3,19-difluoro-10-[(S-methylsulfonimidoyl)methyl]-13,17-dioxa-5,7,24-triazatetracyclo[16.3.1.1^2,6.1^8,12]tetracosa-1(22),2(24),3,5,8(23),9,11,18,20-nonaene]	
	658	CC(C)(C)OC(=O)N=S(C)(=O)Cc1cc2cc(c1)OCCCCCOc1cc(ccc1F)-c1nc(ncc1F)N2 (racemic) [Example 5, (rac)-tert-butyl [{[3,21-difluoro-13,19-dioxa-5,7,26-triazatetracyclo[18.3.1.1^2,6.1^8,12]hexacosa-1(24),2(26),3,5,8(25),9,11,20,22-nonaen-10-yl]methyl}(methyl)oxido-λ^6-sulfanylidene]carbamate]	
	163	CC(C)(C)OC(=O)N=S(C)(=O)Cc1cc2cc(c1)OCCCCOc1cc(ccc1F)-c1nc(ncc1F)N2 (racemic) [Example 3, (rac)-tert-butyl [{[3,20-difluoro-13,18-dioxa-5,7,25-triazatetracyclo[17.3.1.1^2,6.1^8,12]pentacosa-1(23),2(25),3,5,8(24),9,11,19,21-nonaen-10-yl]methyl}(methyl)oxido-λ^6-sulfanylidene]carbamate]	
	144	CS(=N)(=O)Cc1cc2cc(c1)OCCCCCOc1cc(ccc1F)-c1nc(ncc1F)N2 (racemic) [Example 6, (rac)-3,21-difluoro-10-[(S-methylsulfonimidoyl)methyl]-13,19-dioxa-5,7,26-triazatetracyclo[18.3.1.1^2,6.1^8,12]hexacosa-1(24),2(26),3,5,8(25),9,11,20,22-nonaene]	
